A melting point compilation (Tetko et al.; mined from patent text by program, amines drawn as free bases though some values may be those of a salt)

| Structure (SMILES) | melting point [°C] |
| --- | --- |
| CC(=O)CCC1(C(C)C)Cc2cc(OCC(=O)O)c(Cl)c(Cl)c2C1=O (stereo unspecified) | 125 to 128 |
| COc1ccc(CN(C)CCc2ccc(NC(=O)c3cccc4c(=O)c5cccc([N+](=O)[O-])c5[nH]c34)cc2)cc1OC | 197 |
| COc1cc(-c2nc(NC(=O)c3cc4ccccc4n3CCCCCC(=O)O)sc2CCC2CCCCC2)c(OC)cc1Cl | 121 |
| N#Cc1cccnc1N1CCN(CC(=O)Nc2ccc(F)cc2)CC1 | 98 to 100 |
| COCc1c(C(=O)OC(C)C)ncc2c1c1c(OCc3ccccc3)cccc1n2CC(=O)N(C)CCc1ccccc1 | 146 to 147 |
| Fc1ccc(Cn2c(NC3CCN(CCNc4ncccn4)CC3)nc3ccccc32)cc1 | 168 |
| CSCC[C@H](NC(=O)[C@H](CC(C)C)NC(=O)OCc1ccccc1)C(=O)CSC | 61 to 67 |
| CNC(=S)C1=C(O)C(COC)(COC)Oc2ccc([N+](=O)[O-])cc21 | 97 to 101 |
| CC(C)C[C@H](NC(=O)[C@@H]1CCCN1C(=O)[C@@H](N)CSCc1ccccc1)C(=O)NCC(N)=O | 130 to 134 |
| Cc1c(Cl)c(C(=O)O)cc(Cl)c1C(=O)O | 169 to 171 |
| CC(=O)Nn1c(=S)[nH]c2cc(C(=O)O)ccc21 | 334 to 338 |
| NS(=O)(=O)c1cc(C(O)CN(Cc2ccccc2)Cc2ccccc2)ccc1N1CCCCC1 (stereo unspecified) | 133 to 142 |
| Nc1cc(Sc2ccc(Cl)cc2)nc(-c2ccccc2)n1 | 118 to 121 |
| CCOC(=O)Nc1c(C(=O)c2cccc(Cl)c2)[nH]c2cc(Cl)ccc12 | 188 to 189 |
| O=[N+]([O-])c1ccc2c(c1)N[C@@H]1c3cc([N+](=O)[O-])ccc3C[C@H]21 (relative stereo) | 174 to 176 |
| COC(=O)Cc1nc(-c2ccccc2)c2cc(Cl)ccc2n1 | 122 to 123 |
| CCNC(=O)N1CCc2ccc(S(=O)(=O)NC(=O)NC3CCCCC3)cc2CC1 | 158 to 160 |
| NC(=O)Cc1cc(Oc2ccc3c(ccn3C(=O)Nc3ccc(N4CCOCC4)c(C(F)(F)F)c3)c2)ncn1 | 272 to 275 |
| Cn1c(C(F)(F)F)cc(=O)n(-c2c(F)cc(Cl)c3cc(CS(C)(=O)=O)oc23)c1=O | 209 to 211 |
| CCCCN(CCCC)CCCOc1ccc(S(=O)(=O)c2ccc3ccccc3c2)cc1 | 90 |
| Cc1nc(CO)n(Cc2ccccc2)c1C | 156 to 158 |
| N#C[C@@H](NCc1ccccc1)[C@@H]1CSC(=O)N1Cc1ccccc1 | 131 to 132 |
| COC(=O)CCCNC(=O)C[C@H]1O[C@H](c2cccc(OC)c2OC)c2cc(Cl)ccc2N(CC(C)(C)C)C1=O | 74 to 75 |
| O=C1OC(=O)c2c(C(F)(F)F)c3ccccc3c3cccc1c23 | 235 to 237 |

| Structure (SMILES) | melting point [°C] |
| --- | --- |
| CC(=O)NC1(c2ccc(C(C)N3CCN(c4ncccn4)CC3)cc2)CC1 (stereo unspecified) | 124 to 125 |
| CCCc1nc(C(C)(C)O)c(C(=O)O)n1Cc1ccc(-c2ccccc2C(=O)C(=O)O)cc1 | 183 to 185 |
| C=CC1(C(=O)c2ccc(Cl)cc2)C=CC=CC1Cl (stereo unspecified) | 120 to 122 |
| CS(=O)(=O)c1ccc(-c2cc(C(=O)CCCO[N+](=O)[O-])nn2-c2ccc(Cl)cc2)cc1 | 131 to 132 |
| COc1cc(C(=O)Nc2nnn[nH]2)nc(-c2ccc(N(C)C)cc2)c1 | 261 to 263 |
| COc1cccc2c1C13CCN(C(=O)OCC(Cl)(Cl)Cl)C(C2)C1(C(=O)OCC(Cl)(Cl)Cl)CCC(=O)C3 (stereo unspecified) | 115 to 116 |
| CN(C(=O)CCN1CCC(C(O)(c2ccc(F)cc2)c2ccc(F)cc2)CC1)c1ccccc1 | 73 to 75 |
| CCCc1c(OCCCCCC(=O)NCCCCc2ccccn2)ccc(C(C)=O)c1O | 63 to 66 |
| O=C(c1ccccc1)c1cc(Cl)cc2c1S(=O)(=O)CC2C(=O)O (stereo unspecified) | 158 to 161 |
| CC(C)(C)c1cn(N=Cc2cccnc2)c(=O)[nH]1 | 255 to 256 |
| COc1cc2c(cc1O)C1Cc3c(Cl)cc(OC)c(OC(C)=O)c3CN1CC2 (single isomer, unassigned; (-)) | 172 to 173 |
| Cc1cc([N+](=O)[O-])cnc1NCCCN | 93 to 95 |
| COC(=O)c1ccc(OCC(=O)c2cc3cc(C(C)C)ccc3o2)cc1 | 95 to 97 |
| Nc1c(F)c(N2CCC(n3ccnn3)CC2)c(F)c2c1c(=O)c(C(=O)O)cn2C1CC1 | 274 to 276 |
| NCCn1nc2c3c(c(Cl)ccc31)C(=O)c1c(OCc3ccccc3)ccc(OCc3ccccc3)c1-2 | 176 to 178 |
| CC(=C1SC(=O)NC1=O)c1cccc(OCCOc2c(-c3ccc(F)c(F)c3)n(C)c3ccccc3c2=O)c1 | 236 to 240 |
| O=c1c2c[nH]c3c(c-2nn1-c1ccc(Cl)cc1)CC(c1ccccc1)CC3 (stereo unspecified) | 333 to 335 |
| O=[N+]([O-])c1ccc(Oc2ccc(Oc3ccc([N+](=O)[O-])c(O)c3)cc2)cc1O | 242 to 245 |
| Cc1ccc(C(=O)C2=C(O)C(=O)N(c3ccc(C)nn3)C2c2ccc(OC(C)C)cc2)cc1 (stereo unspecified) | 268 to 272 |
| Cc1c([N+](=O)[O-])cc2c(c1C)OC(C)(C)C2=O | 131 to 132 |
| CS(=O)(=O)c1ccc(-c2coc(=O)n2-c2ccc(F)cc2)cc1 | 152 to 153 |
| N#Cc1ccc(C(=O)NC(=S)NC2CC2)cc1 | 151 to 152 |
| CCOC(=O)C(C)(C)Oc1ccc(CCNC(=O)CCc2cc(C(C)(C)C)c(O)c(C(C)(C)C)c2)cc1 | 168 to 171 |
| CCCCc1ncc(/C=C(\Cc2cccs2)c2nnn[nH]2)n1Cc1cccc(Cl)c1Cl | 204 to 205 |

| Structure (SMILES) | melting point [°C] |
| --- | --- |
| CCC(CC)Oc1cc(C)nc(Nc2c(C)cc(C)cc2C)c1NC(=O)CCl | 79 to 82 |
| CCOC(=O)c1cccc(Cn2cnc3ccncc32)c1 | 102 to 104 |
| CSC(C(=O)O)c1cc(=O)oc2cc(O)c(O)cc12 (stereo unspecified) | 254 to 256 |
| N=C(Nc1ccc(OCCNCc2ccccc2)cc1F)c1cccs1 | 105 to 107 |
| OCC(O)(c1ccccc1)C(Cl)c1ccccc1 (stereo unspecified) | 108 to 109 |
| O=C1c2ccccc2C(=O)N1CCCCc1nccc(NC(=S)NCC(F)(F)F)n1 | 204 to 205 |
| COc1ccc(S(=O)(=O)Nc2cccc(F)c2/C=C/c2ccncc2)cc1 | 177 to 178 |
| O=CN1CCC(=C2c3ccc(Cl)cc3CCc3cccnc32)CC1 | 147 to 149 |
| C=C(C)Cc1c(C)c(NC(=O)CC(C)(C)C)c(C)c(Cc2ccc(C(C)C)cc2)c1O | 124 to 125 |
| CC(=O)n1c(=O)n(-c2ccc(Cl)cc2)c(=O)n1C(C)=O | 148 to 150 |
| CSC1CCC2C3CCC4=CC(=O)C=CC4(C)C3(F)C(O)CC12C (stereo unspecified) | 235 to 236 |
| COc1cc(OC)c2c(=O)[nH]c(-c3ccc4[nH]c(CCO)cc4c3)nc2c1 | 237 to 238 |
| N#CC(C#N)CC(CC(F)(F)C(F)(F)C(F)(F)C(F)F)S(=O)(=O)C(F)(F)F (stereo unspecified) | 144 to 146 |
| O=C1C=CC=C2C=CC=C12 | 70 to 71 |
| COc1ccc2c(c1)C(=O)c1ccc(-c3nnn[nH]3)cc1S2(=O)=O | 253 |
| CCCCOc1nc(NC(C)=O)nc2ccc(Cl)nc12 | 158 to 159 |
| O=C(NCC1CN(Cc2ccccc2)CCO1)c1cccc2c1OCO2 (stereo unspecified) | 144 to 146 |
| Cc1nc(SCc2cc(O)nc(O)n2)sc1CC(=O)O | 246 to 247 |
| Cn1cnc(COc2nn3c(-c4ccccc4)nnc3cc2-c2cccs2)n1 | 237 to 239 |
| CN(C)CC1CCCCN1CCNC(=O)N1c2ccccc2NC(=O)c2ccccc21 (stereo unspecified) | 152 to 154 |
| CSC1=NC(C)(C)CN1C(=O)Nc1c(C)cccc1C | 178 to 179 |
| COc1cc(OC)c(C23CC4CC(CC(C4)C2)C3)cc1C#Cc1ccc(C(=O)O)cc1 | 152 to 154 |
| CN1C(=O)C(C(=O)c2ccc(Cl)cc2Cl)C(=O)N(C)C1=O | 123 to 127 |
| CC(C)C(S)C(=O)NC1(C(=O)NC(Cc2ccc(-c3ccc(F)cc3)cc2)C(=O)O)CCCC1 (stereo unspecified) | 196 to 198 |

| Structure (SMILES) | melting point [°C] |
| --- | --- |
| CC(C)(C)C(=O)Oc1nc2c(N)ncnc2n1Cc1ccccc1 | 202 to 204 |
| Cc1ccc2c(c1)C(O)(C1=CCN(C)CC1)CC2c1ccc(F)cc1 (stereo unspecified) | 176 to 178 |
| N#Cc1cc(C2=Nc3cc(O)c(-c4ccc(F)cc4)cc3NC(=O)C2)ccn1 | 164 |
| Fc1ccc(N2CCN(Cc3n[nH]c4ccccc34)CC2)cc1 | 191 to 192 |
| CCCCCCCCCCCCCCCCNc1ccc(C(=O)OCC2CO2)cc1 (stereo unspecified) | 86 to 89 |
| O=c1[nH]c2ncc(Cl)cc2o1 | 184 to 186 |
| O=C(O)C(CC1CCCC1)c1ccc(Cl)c(Cl)c1 (stereo unspecified) | 74.5 to 76.9 |
| O=C(Nc1ccc(F)cc1)Nc1cccc(OCc2ccccc2)c1 | 187 to 189 |
| COc1ccc(C(=O)Nc2ccccc2)cc1NS(=O)(=O)c1cccc(C#N)c1 | 195 to 197 |
| CC(O)CN1CCNC1=S (stereo unspecified) | 101 to 102 |
| COc1cc(CNc2cc(Cl)c(N=CN(C)C)c(Cl)c2)cc(OC)c1 | 124 to 125 |
| COC(=O)c1ccc(OCc2ccc(Cl)cc2)cc1O | 119 to 121 |
| CC(C)(C#N)c1cc(Cn2cncn2)cc(C(C)(C)C(N)=O)c1 | 51 to 53 |
| COCC(O)COc1cccc2c1CCNC2=O (stereo unspecified) | 119 to 123 |
| CC(C)(C)NC(=O)COc1cc2c(cc1C#Cc1ccccc1)NC(=O)CC(c1cccc(C#N)c1)=N2 | > 250 |
| CN1C(=O)C2(COc3cc4c(cc32)OCCO4)c2c(-c3cc(O)[nH]n3)cccc21 (stereo unspecified) | > 250 |
| CC(C)(C)OC(=O)NCC(O)c1ccco1 (stereo unspecified) | 89 to 90 |
| C=CCOc1ccccc1OCC=Cc1ccc(OC)c(OC)c1 | 60 to 60.5 |
| CCCC(=O)c1cnc2c(OC)nccc2c1Nc1ccccc1C | 144 |
| CC(=O)OCc1c(Br)cccc1N1Cc2cc(C(C)(C)C)sc2C1=O | 172 to 173 |
| Cc1sc(-c2ccccc2)nc1CCOc1ccc(C[C@@H](C(=O)O)n2cccc2)cc1 | 157 to 158 |
| CC(C)(C)c1cc(C(C(=O)O)c2ccc(O)c(C(C)(C)C)c2)ccc1O | 173 |
| O=C(Nc1cccc2c1C(=O)c1c-2n[nH]c1-c1ccc(C(=O)NC2CCNCC2)s1)NN1CCOCC1 | 224 to 226 |
| FC(F)(F)c1ccc(-c2cc(Cl)c3ccccc3n2)cc1 | 53 to 55 |
